Assay results reported in PMC12631102, “SYT4 Interacts with PSMC6 to Facilitate Malignant Progression in Gastric Carcinoma via Activating Wnt/β-catenin Signaling” (International Journal of Biological Sciences, 2025).

Target: T1, Synaptotagmin-4 (SYT4) (Homo sapiens, UniProt Q9H2B2)
T1 construct: Recombinant SYT4 protein
T1 sequence (Q9H2B2 1-425): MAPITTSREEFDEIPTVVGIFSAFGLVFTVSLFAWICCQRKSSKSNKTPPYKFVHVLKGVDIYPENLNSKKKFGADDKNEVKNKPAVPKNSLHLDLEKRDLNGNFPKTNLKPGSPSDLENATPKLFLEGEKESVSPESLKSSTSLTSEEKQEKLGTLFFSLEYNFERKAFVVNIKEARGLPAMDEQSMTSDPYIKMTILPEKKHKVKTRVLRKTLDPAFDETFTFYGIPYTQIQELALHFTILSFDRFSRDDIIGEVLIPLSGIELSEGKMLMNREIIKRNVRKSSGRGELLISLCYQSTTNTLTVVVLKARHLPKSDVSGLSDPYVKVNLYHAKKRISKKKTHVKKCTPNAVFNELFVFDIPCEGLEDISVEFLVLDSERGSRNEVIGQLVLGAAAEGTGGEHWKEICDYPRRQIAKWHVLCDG
Test: SPR (Biacore T200, SYT4 immobilized on CM5 chip)
Format: binding

**Q.** How did the Kd turn out when `C=CC(=O)Nc1ccc2[nH]c(=O)n(C3CCN(Cc4ccc(-c5nc6cc[nH]c(=O)c6cc5-c5ccccc5)cc4)CC3)c2c1` [borussertib] was run?
**A.** 16 µM
